pKi: −log10 of the molar value.
How the values were obtained:
human cathepsin S = target: T1, human cathepsin S (Homo sapiens, UniProt P25774); test: Cathepsin S Ki determination; assay type: biochemical; conditions: baculovirus-expressed enzyme, boc-Val-Leu-Lys-AMC substrate, pH 6.5; read-out: Ki Cat. S
T1 construct: made in house; host or cells: baculovirus expression system
Method: The assay uses baculovirus-expressed human cathepsin S and the boc-Val-Leu-Lys-AMC fluorescent substrate available from Bachem in a 384 well plate format, in which 7 test compounds can be tested in parallel with a positive control comprising a known cathepsin S inhibitor comparator.
280 μL/well of 12.5% DMSO are added to rows B-H of two columns of a 96 deep well polypropylene plate. 70 μL/well of substrate is added to row A. 2×250 μL/well of assay buffer (100 mM Na phosphate, 100 mM NaCl, pH 6.5) is added to row A, mixed, and double diluted down the plate to row H.
100 μL/well of assay buffer is added to columns 2-5 and 7-12 of 4 rows of a 96 well V bottom polypropylene plate. 200 μL/well of assay buffer is added to columns 1 and 6.
2 μl of each 10 mM test compound is added to a separate well on row A, columns 1-10. Add 90 μl assay buffer containing 1 mM DTT and 2 nM cathepsin S to each well of rows B-H and 180 μl to row A. Mix row A using a multichannel pipette and double dilute to row G. Mix row H and read in the fluorescent spectrophotometer. The readings are Prism data fitted to the competitive inhibition equation, setting S=100 μM and KM=100 μM to obtain an estimate of the up to a maximum of 100 μM.
The second test compound is added to column 6 of the top row, the third to column 1 of the second row etc. Add 1 μL of comparator to column 6 of the bottom row. Mix column 1 and double dilute to column 5. Mix column 6 and double dilute to column 10.
Using an 8-channel multistepping pipette set to 5×10 μL, distribute 10 μL/well of substrate to the 384 well assay plate. Distribute the first column of the substrate dilution plate to all columns of the assay plate starting at row A. The tip spacing of the multichannel pipette will correctly skip alternate rows. Distribute the second column to all columns starting at row B.
Using a 12-channel multistepping pipette set to 4×10 μL, distribute 10 μL/well of inhibitor to the 384 well assay plate. Distribute the first row of the inhibitor dilution plate to alternate rows of the assay plate starting at A1. The tip spacing of the multichannel pipette will correctly skip alternate columns. Similarly, distribute the second, third and fourth rows to alternate rows and columns starting at A2, B1 and B2 respectively.
Mix 20 mL assay buffer and 20 μL 1M DTT. Add sufficient cathepsin S to give 2 nM final concentration.
Using the a distributor such as a Multidrop 384, add 30 μL/well to all wells of the assay plate and read in fluorescent spectrophotometer such as an Ascent.
Fluorescent readings, (excitation and emission wavelengths 390 nm and 460 nm respectively, set using bandpass filters) reflecting the extent of enzyme cleavage of the fluorescent substrate, […] the inhibitor, are linear rate fitted for each well.
Fitted rates for all wells for each inhibitor are fitted to the competitive inhibition equation using SigmaPlot 2000 to determine V, Km and Ki values.
(§1) Potential inhibitors are screened using the above assay with variable concentrations of test compound. Reactions were initiated by addition of enzyme to buffered solutions of substrate and inhibitor. Ki values were calculated according to equation 1.
(§2) [formula] where v0 is the velocity of the reaction, V is the maximal velocity, S is the concentration of substrate with Michaelis constant of KM, and I is the concentration of inhibitor.

[1] = target: T2, human recombinant cathepsin K (Homo sapiens, UniProt P43235); test: Determination of cathepsin K proteolytic catalytic activity (Ki); assay type: biochemical; conditions: fluorogenic substrate H-D-Ala-Leu-Lys-AMC; read-out: Ki Cat. K
T2 construct: made in house; host or cells: not fixed: E coli, Pichia or Baculovirus systems named as options
T2 sequence (P43235 115-329): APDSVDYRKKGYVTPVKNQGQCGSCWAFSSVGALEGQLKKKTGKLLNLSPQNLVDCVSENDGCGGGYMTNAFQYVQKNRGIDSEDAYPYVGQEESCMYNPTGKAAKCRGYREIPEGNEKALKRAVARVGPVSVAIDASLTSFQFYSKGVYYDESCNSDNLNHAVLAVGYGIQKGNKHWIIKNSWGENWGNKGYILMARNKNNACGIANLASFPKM
Method: Convenient assays for cathepsin K are carried out using human recombinant enzyme, such as that described in PDB. • ID BC016058 standard; mRNA; HUM; 1699 BP. • DE Homo sapiens cathepsin K (pycnodysostosis), mRNA (cDNA clone MGC:23107 • RX MEDLINE;. RX PUBMED; 12477932. • DR RZPD; IRALp962G1234. • DR SWISS-PROT; P43235;
The recombinant cathepsin K can be expressed in a variety of commercially available expression systems including E coli, Pichia and Baculovirus systems. The purified enzyme is activated by removal of the prosequence by conventional methods.
Standard assay conditions for the determination of kinetic constants used a fluorogenic peptide substrate, typically H-D-Ala-Leu-Lys-AMC, and were determined in either 100 mM Mes/Tris, pH 7.0 containing 1 mM EDTA and 10 mM 2-mercaptoethanol or 100 mMNa phosphate, imM EDTA, 0.1% PEG4000 pH 6.5 or 100 mM Na acetate, pH 5.5 containing 5 mM EDTA and 20 mM cysteine, in each case optionally with […] as stabiliser. The enzyme concentration used was 5 nM. The stock substrate solution was prepared at 10 mM in DMSO. Screens were carried out at a fixed substrate concentration of 60 μM and detailed kinetic studies with doubling dilutions of substrate from 250 μM. The total DMSO concentration in the assay was kept below 3%. All assays were conducted at ambient temperature. Product fluorescence (excitation at 390 nm, emission at 460 nm) was monitored with a Labsystems Fluoroskan Ascent fluorescent plate reader. Product progress curves were generated over 15 minutes following generation of AMC product.
as §1, §2

human cathepsin L = human cathepsin L (Homo sapiens, UniProt P07711); test: Cathepsin L Ki; assay type: biochemical; conditions: H-D-Val-Leu-Lys-AMC substrate, pH5.5; read-out: Ki Cat. L
Method: The procedure above with the following amendments is used for the determination of Ki for cathepsin L.
The enzyme is commercially available human cathepsin L (for example Calbiochem). The substrate is H-D-Val-Leu-Lys-AMC available from Bahcem. The assay buffer is 100 mM sodium acetate 1 mM EDTA, pH5.5) The DMSO stock (10 mM in 100% DMSO) is diluted to 10% in assay buffer. Enzyme is prepared at 5 nM concentration in assay buffer plus 1 mM dithiothreitol just before use. 2 μL of 10 mM inhibitor made up in 100% DMSO is dispensed into row A. 10 μL of 50 μM substrate (=1/200 dilution of 10 mM stock in DMSO, diluted in assay buffer).
as §1, §2

[2] = reference markers for permeability categories; cited from earlier work

Chain of human cathepsin L (P07711 114-333): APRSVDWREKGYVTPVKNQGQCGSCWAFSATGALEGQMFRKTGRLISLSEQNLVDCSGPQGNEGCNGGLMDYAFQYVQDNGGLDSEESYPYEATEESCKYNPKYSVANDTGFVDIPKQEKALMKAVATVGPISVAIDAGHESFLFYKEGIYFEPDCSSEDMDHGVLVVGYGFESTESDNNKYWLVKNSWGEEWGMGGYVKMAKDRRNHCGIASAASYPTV
T1 sequence (P25774 115-331): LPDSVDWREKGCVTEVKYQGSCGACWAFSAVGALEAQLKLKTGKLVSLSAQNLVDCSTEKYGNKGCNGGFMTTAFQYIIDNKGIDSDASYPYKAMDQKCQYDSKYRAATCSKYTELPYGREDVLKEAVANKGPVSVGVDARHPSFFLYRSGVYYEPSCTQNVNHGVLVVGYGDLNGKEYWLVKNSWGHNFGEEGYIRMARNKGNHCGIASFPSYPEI

pKi (human cathepsin S)	pKi [1]	pKi (human cathepsin L)	Structure (SMILES)	absorption in man (%) [2] [%]
9.06	6.19	6.59	Cc1ccc(C(=O)N[C@@H](CC2(F)CCCC2)C(=O)NC2(C(=O)C(N)=O)CCC2)cn1 [Example A7]	
8.44	5.89	4.85	NC(=O)C(=O)C1(NC(=O)[C@H](CC2(F)CCCC2)NC(=O)C2(C(F)(F)F)CC2)CCC1 [Example A25]	
8.19	5.60	4.68	CCOC(=O)N[C@@H](CC1(F)CCCC1)C(=O)NC1(C(=O)C(N)=O)CCCC1 [Example C7, (S)-ethyl(1-((1-(2-amino-2-oxoacetyl)cyclopentyl)amino)-3-(1-fluorocyclopentyl)-1-oxopropan-2-yl)carbamate]	
			OC[C@@H](O)[C@@H](O)[C@H](O)[C@H](O)CO [Mannitol]	16
			N[C@@H](Cc1ccccc1)C(=O)O [L-Phenylalanine]	100
8.64	6.00	4.96	CC1(C[C@H](NC(=O)C(C)(C)F)C(=O)NC2(C(=O)C(N)=O)CC(F)(F)C2)CCCC1 [Example A31]	
10.08	6.30	6.64	NC(=O)C(=O)[C@]1(NC(=O)[C@H](CC2(F)CCCC2)NC(=O)c2cccc(-n3ccnc3)c2)C[C@H](F)C1 [Example A1, N-[1-(1-Aminooxalyl-3-fluoro-cyclobutylcarbamoyl)-2-(1-fluoro-cyclopentyl)-ethyl]-3-imidazol-1-yl-benzamide]	
8.43	5.92	5.59	CC(C)(C)OC(=O)N[C@@H](CC1(F)CCCC1)C(=O)NC1(C(=O)C(N)=O)CC1 [Example C11]	
8.92	6.52	5.52	CC1(C[C@H](NC(=O)C(C)(C)C(F)(F)F)C(=O)NC2(C(=O)C(N)=O)CCC2)CCCC1 [Example A24]	
8.96	6.14	5.77	CC1(C[C@H](NC(=O)OC(C)(C)C)C(=O)NC2(C(=O)C(N)=O)CCC2)CCCC1 [Example C4]	
7.51	4.82	4.64	NC(=O)C(=O)C1(NC(=O)[C@H](CC2(F)CCCC2)NC(=O)C2(C(F)(F)F)CCC2)CCC1 [Example A28]	
10.00	6.85	6.74	CC1(C[C@H](NC(=O)c2ccc(F)cc2)C(=O)NC2(C(=O)C(N)=O)CCC2)CCCC1 [Example A3]	
8.31	5.64	4.92	CCC(=O)N[C@@H](CC1(C)CCCC1)C(=O)NC1(C(=O)C(N)=O)CCC1 [Example A4]	
8.55	5.96	5.28	CCOC(=O)N[C@@H](CC1(F)CCCC1)C(=O)N[C@]1(C(=O)C(N)=O)C[C@@H](F)C1 [Example C5, [1-(1-Aminooxalyl-3-fluoro-cyclobutylcarbamoyl)-2-(1-fluoro-cyclopentyl)-ethyl]-carbamic acid ethyl ester]	
9.52	6.20	5.74	CC1(C[C@H](NC(=O)C2CC2)C(=O)NC2(C(=O)C(N)=O)CCC2)CCCC1 [Example A2, Cyclopropanecarboxylic acid [1-(1-aminooxalyl-cyclobutylcarbamoyl)-2-(1-methyl-cyclopentyl)-ethyl]-amide]	
			CN(Cc1cnc2nc(N)nc(N)c2n1)c1ccc(C(=O)N[C@@H](CCC(=O)O)C(=O)O)cc1 [Methotrexate]	20
8.68	6.19	5.55	CC(C)OC(=O)N[C@@H](CC1(F)CCCC1)C(=O)NC1(C(=O)C(N)=O)CCC1 [Example C14]	
8.57	5.72	5.49	CC1(C[C@H](NC(=O)OC(C)(C)C)C(=O)NC2(C(=O)C(N)=O)CC2)CCCC1 [Example C12]	
8.12	5.34	< 3.70	NC(=O)C(=O)C1(NC(=O)[C@H](CC2(F)CCCC2)NC(=O)C2(C(F)(F)F)CC2)CC1 [Example A38]	
8.89	6.55	5.38	NC(=O)C(=O)C1(NC(=O)[C@H](CC2CCC2)NC(=O)C2CC2(F)F)CCC1 (single isomer, unassigned) [Example A43-1]	
9.17	6.31	6.31	NC(=O)C(=O)C1(NC(=O)[C@H](CC2(F)CCCC2)NC(=O)c2ccc(F)cc2F)CCC1 [Example A17]	
9.11	6.74	6.15	NC(=O)C(=O)C1(NC(=O)[C@H](CC2(F)CCCC2)NC(=O)c2ccccn2)CCC1 [Example A34]	
7.92	6.11	4.96	CC(C)(C)C[C@H](NC(=O)OC(C)(C)C)C(=O)N[C@]1(C(=O)C(N)=O)C[C@@H](F)C1 [Example C1, Tert-butyl(S)-1-((1r,3S)-1-(2-amino-2-oxoacetyl)-3-fluorocyclobutylamino)-4,4-dimethyl-1-oxopentan-2-ylcarbamate]	
8.89	6.36	5.77	CC(C)(C)OC(=O)NC(CC1(F)CCCC1)C(=O)NC1(C(=O)C(N)=O)CC(F)C1 (stereo not drawn) [Example C3]	

Structure (SMILES)	pKi (human cathepsin S)	pKi [1]	pKi (human cathepsin L)	absorption in man (%) [2] [%]
CCOC(=O)NC(CC1(F)CCCC1)C(=O)NC1(C(=O)C(N)=O)CCC1 (stereo not drawn) [Example C6, [1-(1-Aminooxalyl-cyclobutylcarbamoyl)-2-(1-fluorocyclopentyl)-ethyl]-carbamic acid ethyl ester]	8.62	6.02	5.43	

Reference: patent US8859505B2, “Cysteine protease inhibitors” (Medivir UK Ltd, priority 2010, dated 2014)
